Results taken from ChEMBL document CHEMBL5346912, “Discovery of 3,5-diaryl-1H-pyrazol-based ureas as potent RET inhibitors” (Eur J Med Chem, 2023).
The source made the active and inactive calls. No cut-off for these calls is given here.

What was measured:
[1] = target: Epithelial discoidin domain-containing receptor 1 (Homo sapiens, UniProt Q08345); test: Inhibition of DDR1 (unknown origin) by DiscoverX KINOMEscan assay
[2] = Half life in fasted Sprague-Dawley rat at 25 mg/kg, po; type: ADME, organism-based; settings: in vivo
[3] = target: Platelet-derived growth factor receptor beta (Homo sapiens, UniProt P09619); test: Inhibition of PDGFRB (unknown origin) by DiscoverX KINOMEscan assay
[4] = Bioavailability in fasted Sprague-Dawley rat at 25 mg/kg, po; type: ADME, organism-based; settings: in vivo
[5] = Cmax in Sprague-Dawley rat at 5 mg/kg, iv; type: ADME, organism-based; set-up: dose 5 mg/kg, route iv; settings: in vivo
[6] = target: Proto-oncogene tyrosine-protein kinase receptor Ret (Mus musculus) (UniProt P35546); test: Inhibition of RET signalling pathway in mouse BaF3 cells harboring CCDC6-RET-V804M mutant assessed as suppression of RET phosphorylation at 33.3 nM incubated for 4 hrs by Western blot analysis; type: cell-based
Sequence of Proto-oncogene tyrosine-protein kinase receptor Ret (Mus musculus) (P35546 whole entry): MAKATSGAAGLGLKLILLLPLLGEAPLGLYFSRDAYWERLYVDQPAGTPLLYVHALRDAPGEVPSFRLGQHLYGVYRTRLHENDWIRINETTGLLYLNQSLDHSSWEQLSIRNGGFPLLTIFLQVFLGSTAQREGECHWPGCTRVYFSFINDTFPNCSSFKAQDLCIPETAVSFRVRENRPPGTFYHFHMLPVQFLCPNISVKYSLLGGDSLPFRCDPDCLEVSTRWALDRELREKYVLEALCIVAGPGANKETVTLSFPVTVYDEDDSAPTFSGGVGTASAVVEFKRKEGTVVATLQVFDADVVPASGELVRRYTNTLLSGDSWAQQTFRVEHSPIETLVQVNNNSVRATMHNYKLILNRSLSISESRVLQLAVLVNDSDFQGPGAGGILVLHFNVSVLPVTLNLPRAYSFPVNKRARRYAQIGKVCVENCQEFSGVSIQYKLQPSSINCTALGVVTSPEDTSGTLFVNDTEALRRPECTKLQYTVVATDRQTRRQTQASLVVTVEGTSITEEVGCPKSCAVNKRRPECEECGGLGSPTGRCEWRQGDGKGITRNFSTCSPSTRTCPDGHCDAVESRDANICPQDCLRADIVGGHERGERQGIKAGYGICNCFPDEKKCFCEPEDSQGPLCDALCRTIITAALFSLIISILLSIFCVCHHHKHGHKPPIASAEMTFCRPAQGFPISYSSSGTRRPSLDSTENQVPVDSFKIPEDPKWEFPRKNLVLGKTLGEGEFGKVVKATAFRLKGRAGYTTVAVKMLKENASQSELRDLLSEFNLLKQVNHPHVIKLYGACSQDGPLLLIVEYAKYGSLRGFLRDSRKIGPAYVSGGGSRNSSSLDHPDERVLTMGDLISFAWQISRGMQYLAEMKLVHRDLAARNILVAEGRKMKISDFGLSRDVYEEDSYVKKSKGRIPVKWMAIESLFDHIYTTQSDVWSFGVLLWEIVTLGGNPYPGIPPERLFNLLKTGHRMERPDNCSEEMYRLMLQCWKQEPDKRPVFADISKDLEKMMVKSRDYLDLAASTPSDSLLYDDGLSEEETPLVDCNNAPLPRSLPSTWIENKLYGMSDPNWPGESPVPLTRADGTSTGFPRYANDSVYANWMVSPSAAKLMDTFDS

BaF3 [7] = test: Antiproliferative activity against mouse BaF3 cells expressing CCDC6-RET-G810R incubated for 72 hrs by CCK8 assay; type: functional, cell-based; settings: BaF3, 72 h
[8] = target: Macrophage colony-stimulating factor 1 receptor (Homo sapiens, UniProt P07333); test: Inhibition of CSF1R (unknown origin) by DiscoverX KINOMEscan assay
[9] = Tmax in fasted Sprague-Dawley rat at 25 mg/kg, po; type: ADME, organism-based; settings: in vivo
[10] = AUC (0 to infinity) in fasted Sprague-Dawley rat at 25 mg/kg, po; type: ADME, organism-based; set-up: dose 25 mg/kg, route po; settings: in vivo
[11] = target: Mast/stem cell growth factor receptor Kit (Homo sapiens, UniProt P10721); test: Inhibition of KIT (unknown origin) by DiscoverX KINOMEscan assay
[12] = target: Proto-oncogene tyrosine-protein kinase receptor Ret (Mus musculus) (UniProt P35546); test: Inhibition of RET signalling pathway in mouse BaF3 cells harboring CCDC6-RET assessed as suppression of SHC activation at 33.3 nM incubated for 4 hrs by Western blot analysis; type: cell-based
[13] = target: Proto-oncogene tyrosine-protein kinase receptor Ret (Mus musculus) (UniProt P35546); test: Inhibition of RET signalling pathway in mouse BaF3 cells harboring CCDC6-RET-G810C mutant assessed as suppression of RET activation incubated for 4 hrs by Western blot analysis; type: cell-based; settings: dose <= 300.0 nM
[14] = target: T1, Proto-oncogene tyrosine-protein kinase receptor Ret (Homo sapiens, UniProt P07949); test: Binding affinity to RET (unknown origin) assessed as dissociation constant in presence of ATP by FRET based Z'-Lyte assay
T1 sequence (P07949 whole entry): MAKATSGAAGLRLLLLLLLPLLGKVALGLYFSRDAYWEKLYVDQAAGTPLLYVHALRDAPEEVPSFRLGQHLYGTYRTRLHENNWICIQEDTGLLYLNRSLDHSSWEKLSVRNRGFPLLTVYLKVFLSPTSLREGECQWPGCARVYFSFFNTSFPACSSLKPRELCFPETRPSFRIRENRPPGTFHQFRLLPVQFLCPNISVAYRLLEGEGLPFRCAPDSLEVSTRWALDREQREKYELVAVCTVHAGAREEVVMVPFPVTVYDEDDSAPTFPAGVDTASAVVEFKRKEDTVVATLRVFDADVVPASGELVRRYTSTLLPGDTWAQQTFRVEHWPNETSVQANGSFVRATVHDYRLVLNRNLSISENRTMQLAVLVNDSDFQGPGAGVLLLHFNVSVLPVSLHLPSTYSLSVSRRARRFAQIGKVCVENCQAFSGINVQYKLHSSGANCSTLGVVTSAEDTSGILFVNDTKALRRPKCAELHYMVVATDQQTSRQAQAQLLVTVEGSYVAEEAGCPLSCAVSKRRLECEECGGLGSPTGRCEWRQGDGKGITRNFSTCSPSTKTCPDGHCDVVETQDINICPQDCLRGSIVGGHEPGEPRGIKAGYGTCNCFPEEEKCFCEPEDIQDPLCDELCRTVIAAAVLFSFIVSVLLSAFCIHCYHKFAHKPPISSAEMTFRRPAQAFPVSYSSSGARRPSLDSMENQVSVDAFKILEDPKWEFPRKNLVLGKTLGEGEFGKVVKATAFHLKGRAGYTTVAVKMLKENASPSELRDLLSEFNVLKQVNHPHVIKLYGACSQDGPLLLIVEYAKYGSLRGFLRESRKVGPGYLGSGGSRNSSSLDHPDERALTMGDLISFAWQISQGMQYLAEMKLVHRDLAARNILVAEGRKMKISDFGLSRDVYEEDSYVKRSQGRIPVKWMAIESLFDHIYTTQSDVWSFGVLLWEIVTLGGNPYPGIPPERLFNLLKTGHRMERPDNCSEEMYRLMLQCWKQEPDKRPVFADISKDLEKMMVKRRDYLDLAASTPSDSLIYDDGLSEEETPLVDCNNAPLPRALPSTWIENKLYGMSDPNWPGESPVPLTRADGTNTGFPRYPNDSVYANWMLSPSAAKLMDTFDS

[15] = target: T1, Proto-oncogene tyrosine-protein kinase receptor Ret; test: Inhibition of RET (unknown origin) by DiscoverX KINOMEscan assay
[16] = target: Epidermal growth factor receptor (Homo sapiens, UniProt P00533); test: Inhibition of EGFR (unknown origin) by DiscoverX KINOMEscan assay
Sequence of Epidermal growth factor receptor (P00533 whole entry): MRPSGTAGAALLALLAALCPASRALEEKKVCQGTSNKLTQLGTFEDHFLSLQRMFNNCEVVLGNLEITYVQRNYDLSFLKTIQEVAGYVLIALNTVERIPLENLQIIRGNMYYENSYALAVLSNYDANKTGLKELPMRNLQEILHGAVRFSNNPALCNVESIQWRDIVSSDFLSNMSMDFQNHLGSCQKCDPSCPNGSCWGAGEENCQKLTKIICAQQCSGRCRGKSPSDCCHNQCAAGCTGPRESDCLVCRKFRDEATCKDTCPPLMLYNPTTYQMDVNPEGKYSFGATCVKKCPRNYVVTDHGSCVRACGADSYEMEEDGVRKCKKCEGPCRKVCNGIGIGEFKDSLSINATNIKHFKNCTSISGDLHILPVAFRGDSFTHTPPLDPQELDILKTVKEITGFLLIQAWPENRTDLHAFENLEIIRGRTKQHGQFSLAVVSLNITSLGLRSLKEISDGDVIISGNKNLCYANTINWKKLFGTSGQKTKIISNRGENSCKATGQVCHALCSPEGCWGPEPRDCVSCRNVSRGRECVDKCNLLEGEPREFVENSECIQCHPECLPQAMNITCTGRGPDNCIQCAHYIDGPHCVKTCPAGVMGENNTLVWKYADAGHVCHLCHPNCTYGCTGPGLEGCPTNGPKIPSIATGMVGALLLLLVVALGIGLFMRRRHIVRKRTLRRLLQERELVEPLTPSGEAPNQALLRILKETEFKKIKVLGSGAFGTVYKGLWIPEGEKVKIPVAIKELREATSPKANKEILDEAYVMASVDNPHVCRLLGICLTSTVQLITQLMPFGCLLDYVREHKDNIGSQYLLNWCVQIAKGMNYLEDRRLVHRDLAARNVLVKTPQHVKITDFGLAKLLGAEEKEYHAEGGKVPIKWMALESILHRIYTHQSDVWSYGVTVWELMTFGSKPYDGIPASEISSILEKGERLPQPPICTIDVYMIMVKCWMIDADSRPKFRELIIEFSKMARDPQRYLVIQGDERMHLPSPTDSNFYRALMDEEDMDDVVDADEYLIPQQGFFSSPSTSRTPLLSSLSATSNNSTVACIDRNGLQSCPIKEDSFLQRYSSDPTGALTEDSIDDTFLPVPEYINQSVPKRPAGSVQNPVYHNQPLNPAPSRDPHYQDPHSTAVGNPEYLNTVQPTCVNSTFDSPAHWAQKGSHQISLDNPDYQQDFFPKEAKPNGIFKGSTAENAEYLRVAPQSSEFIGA

[17] = AUC (0 to infinity) in Sprague-Dawley rat at 5 mg/kg, iv; type: ADME, organism-based; set-up: dose 5 mg/kg, route iv; settings: in vivo
[18] = target: Proto-oncogene tyrosine-protein kinase receptor Ret (Mus musculus) (UniProt P35546); test: Inhibition of RET signalling pathway in mouse BaF3 cells harboring CCDC6-RET-G810C mutant assessed as suppression of RET phosphorylation at 33.3 nM incubated for 4 hrs by Western blot analysis; type: cell-based
[19] = target: Proto-oncogene tyrosine-protein kinase receptor Ret (Mus musculus) (UniProt P35546); test: Inhibition of RET signalling pathway in mouse BaF3 cells harboring CCDC6-RET-G810C mutant assessed as suppression of SHC activation incubated for 4 hrs by Western blot analysis; type: cell-based; settings: dose <= 300.0 nM
BaF3 [20] = test: Antiproliferative activity against mouse BaF3 cells expressing CCDC6-RET-G810C incubated for 72 hrs by CCK8 assay; type: functional, cell-based; settings: BaF3, 72 h
BaF3 [21] = test: Antiproliferative activity against mouse BaF3 cells expressing CCDC6-RET incubated for 72 hrs by CCK8 assay; type: functional, cell-based; settings: BaF3, 72 h
[22] = Half life in Sprague-Dawley rat at 5 mg/kg, iv; type: ADME, organism-based; settings: in vivo
[23] = target: Proto-oncogene tyrosine-protein kinase receptor Ret (Mus musculus) (UniProt P35546); test: Inhibition of RET signalling pathway in mouse BaF3 cells harboring CCDC6-RET-V804M mutant assessed as suppression of SHC activation at 33.3 nM incubated for 4 hrs by Western blot analysis; type: cell-based
[24] = target: Vascular endothelial growth factor receptor 2 (Homo sapiens, UniProt P35968); test: Inhibition of VEGFR2 (unknown origin) by DiscoverX KINOMEscan assay
BaF3 [25] = test: cells; settings: Mus musculus, BaF3, 72 h
Description: Antiproliferative activity against mouse BaF3 cells incubated for 72 hrs by CCK8 assay

[26] = target: Proto-oncogene tyrosine-protein kinase receptor Ret (Homo sapiens, UniProt P07949, V804M); test: Inhibition of RET V804M mutant (unknown origin) by DiscoverX KINOMEscan assay
Sequence of Proto-oncogene tyrosine-protein kinase receptor Ret (Homo sapiens, UniProt P07949, V804M) (P07949 29-1114 V804M limits assumed): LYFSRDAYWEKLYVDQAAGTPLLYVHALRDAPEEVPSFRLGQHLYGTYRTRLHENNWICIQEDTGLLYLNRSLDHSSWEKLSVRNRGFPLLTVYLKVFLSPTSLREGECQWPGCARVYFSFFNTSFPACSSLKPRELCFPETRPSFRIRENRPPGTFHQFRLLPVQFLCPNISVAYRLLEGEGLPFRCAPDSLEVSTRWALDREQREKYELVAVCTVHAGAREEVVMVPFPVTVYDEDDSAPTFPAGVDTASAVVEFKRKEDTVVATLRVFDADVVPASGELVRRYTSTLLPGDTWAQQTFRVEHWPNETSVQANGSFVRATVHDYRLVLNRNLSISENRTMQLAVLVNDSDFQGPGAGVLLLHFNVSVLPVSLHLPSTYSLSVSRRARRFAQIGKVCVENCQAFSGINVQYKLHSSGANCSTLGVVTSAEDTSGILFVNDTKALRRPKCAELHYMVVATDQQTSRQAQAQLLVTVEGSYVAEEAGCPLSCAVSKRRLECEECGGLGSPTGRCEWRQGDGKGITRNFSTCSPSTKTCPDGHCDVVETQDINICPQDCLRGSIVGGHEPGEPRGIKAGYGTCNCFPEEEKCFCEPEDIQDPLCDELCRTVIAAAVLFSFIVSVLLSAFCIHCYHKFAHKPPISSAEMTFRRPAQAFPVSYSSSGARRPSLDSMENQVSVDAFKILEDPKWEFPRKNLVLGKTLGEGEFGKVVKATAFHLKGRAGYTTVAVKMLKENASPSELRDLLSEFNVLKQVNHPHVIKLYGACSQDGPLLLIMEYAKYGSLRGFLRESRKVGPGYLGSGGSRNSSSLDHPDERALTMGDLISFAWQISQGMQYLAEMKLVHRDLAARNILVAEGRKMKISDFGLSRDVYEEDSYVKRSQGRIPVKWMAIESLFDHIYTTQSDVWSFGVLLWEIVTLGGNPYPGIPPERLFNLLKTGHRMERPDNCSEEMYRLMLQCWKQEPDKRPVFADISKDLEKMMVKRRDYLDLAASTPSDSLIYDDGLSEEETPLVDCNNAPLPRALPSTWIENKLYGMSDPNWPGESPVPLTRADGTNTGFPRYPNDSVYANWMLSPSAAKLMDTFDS

BaF3 [27] = test: Antiproliferative activity against mouse BaF3 cells expressing CCDC6-RET-V804M incubated for 72 hrs by CCK8 assay; type: functional, cell-based; settings: BaF3, 72 h
[28] = target: Proto-oncogene tyrosine-protein kinase receptor Ret (Mus musculus) (UniProt P35546); test: Inhibition of RET signalling pathway in mouse BaF3 cells harboring CCDC6-RET-G810C mutant assessed as suppression of SHC activation at 33.3 nM incubated for 4 hrs by Western blot analysis; type: cell-based
[29] = target: Proto-oncogene tyrosine-protein kinase receptor Ret (Mus musculus) (UniProt P35546); test: Inhibition of RET signalling pathway in mouse BaF3 cells harboring CCDC6-RET assessed as suppression of RET phosphorylation at 33.3 nM incubated for 4 hrs by Western blot analysis; type: cell-based
[30] = Cmax in fasted Sprague-Dawley rat at 25 mg/kg, po; type: ADME, organism-based; set-up: dose 25 mg/kg, route po; settings: in vivo
BaF3 [31] = test: Antitumor activity against mouse BaF3 cells expressing CCDC6-RET-V804M xenografted in CB17-SCID mouse model assessed as tumor growth inhibition at 30 mg/kg, po qd via gavage for 14 days relative to control; type: functional; settings: BaF3, 336 h, time 14 day, read-out: TGI
[32] = Toxicity in CB17-SCID mouse model xenografted with mouse BaF3 cells expressing CCDC6-RET-V804M assessed as body weight loss at 30 to 60 mg/kg, po qd via gavage for 14 days; type: organism-based; settings: in vivo, 336 h, dose 30-60 mg/kg, time 14 day
[33] = Toxicity in CB17-SCID mouse model xenografted with mouse BaF3 cells expressing CCDC6-RET-V804M assessed as animal mortality at 30 to 60 mg/kg, po qd via gavage for 14 days; type: organism-based; settings: in vivo, 336 h, dose 30-60 mg/kg, time 14 day
BaF3 [34] = test: Antitumor activity against mouse BaF3 cells expressing CCDC6-RET-V804M xenografted in CB17-SCID mouse model assessed as tumor growth inhibition at 60 mg/kg, po qd via gavage for 14 days relative to control; type: functional; settings: BaF3, 336 h, time 14 day, read-out: TGI

Compound | IC50 [1] [nM] | half-life [2] [h] | IC50 [3] [nM] | bioavailability [4] [%] | Cmax [5] [ng/mL] | inhibition [6] | IC50 (BaF3 [7]) [nM] | IC50 [8] [nM] | Tmax [9] [h] | AUC(0-inf) [10] [ng·h/mL] | IC50 [11] [nM] | inhibition [12] | inhibition [13] | Kd [14] [nM] | IC50 [15] [nM] | IC50 [16] [nM] | AUC(0-inf) [17] [ng·h/mL] | inhibition [18] | inhibition [19] | IC50 (BaF3 [20]) [nM] | further results
CC(C)(C)c1cc(NC(=O)Nc2ccc(-c3cc(-c4ccc(OCCN5CCOCC5)cc4)[nH]n3)cc2)no1 | 9 | 6.9 | 24.4 | 23.6 | 10700 | Active | 549 | 33 | 6 | 20500 | 21.6 | Active | Dose-Dependent Effect | 4.3 | 16.1 | > 1000 | 15600 | Active | Dose-Dependent Effect | 89.8 | IC50 (BaF3 [21]): 9.3 nM; half-life [22]: 3.3 h; inhibition [23]: Active; IC50 [24]: 331 nM; IC50 (BaF3 [25]): 1230 nM; IC50 [26]: 15.4 nM; IC50 (BaF3 [27]): 9.4 nM; inhibition [28]: Active; inhibition [29]: Active; Cmax [30]: 1250 ng/mL
CC(C)(c1cc(NC(=O)Nc2ccc(-c3cc(-c4ccc(OCCN5CCOCC5)cc4)[nH]n3)cc2)no1)C(F)(F)F | 66.6 | 12.4 | 16.3 | 21.1 | 9970 | Active | 401 | 108 | 6.7 | 43800 | 45.1 | Active | Dose-Dependent Effect | 6.5 | 20.9 | > 1000 | 32500 | Active | Dose-Dependent Effect | 84.6 | inhibition in vivo at 30 mg/kg (BaF3 [31]): 83.6%; Activity [32]: Non-Toxic; Activity [33]: Non-Toxic; IC50 (BaF3 [21]): 13.6 nM; inhibition in vivo at 60 mg/kg (BaF3 [34]): 94.6%; half-life [22]: 8.8 h; inhibition [23]: Active; IC50 [24]: 380 nM; IC50 (BaF3 [25]): 3870 nM; IC50 [26]: 18.3 nM; IC50 (BaF3 [27]): 12.1 nM; inhibition [28]: Active; inhibition [29]: Active; Cmax [30]: 2060 ng/mL
